# Results from publication PMC7268545, “Development of a QPatch-Automated Electrophysiology Assay for Identifying TMEM16A Small-Molecule Inhibitors” (Assay and Drug Development Technologies, 2020).
# Read-outs that look alike come from different tables or passages of the source.
# Molecular target: T1, human ANO1 channel (isoform acd) (Homo sapiens, UniProt Q5XXA6)
# T1 construct: host or cells: HEK293T
# T1 sequence (Q5XXA6 1-986): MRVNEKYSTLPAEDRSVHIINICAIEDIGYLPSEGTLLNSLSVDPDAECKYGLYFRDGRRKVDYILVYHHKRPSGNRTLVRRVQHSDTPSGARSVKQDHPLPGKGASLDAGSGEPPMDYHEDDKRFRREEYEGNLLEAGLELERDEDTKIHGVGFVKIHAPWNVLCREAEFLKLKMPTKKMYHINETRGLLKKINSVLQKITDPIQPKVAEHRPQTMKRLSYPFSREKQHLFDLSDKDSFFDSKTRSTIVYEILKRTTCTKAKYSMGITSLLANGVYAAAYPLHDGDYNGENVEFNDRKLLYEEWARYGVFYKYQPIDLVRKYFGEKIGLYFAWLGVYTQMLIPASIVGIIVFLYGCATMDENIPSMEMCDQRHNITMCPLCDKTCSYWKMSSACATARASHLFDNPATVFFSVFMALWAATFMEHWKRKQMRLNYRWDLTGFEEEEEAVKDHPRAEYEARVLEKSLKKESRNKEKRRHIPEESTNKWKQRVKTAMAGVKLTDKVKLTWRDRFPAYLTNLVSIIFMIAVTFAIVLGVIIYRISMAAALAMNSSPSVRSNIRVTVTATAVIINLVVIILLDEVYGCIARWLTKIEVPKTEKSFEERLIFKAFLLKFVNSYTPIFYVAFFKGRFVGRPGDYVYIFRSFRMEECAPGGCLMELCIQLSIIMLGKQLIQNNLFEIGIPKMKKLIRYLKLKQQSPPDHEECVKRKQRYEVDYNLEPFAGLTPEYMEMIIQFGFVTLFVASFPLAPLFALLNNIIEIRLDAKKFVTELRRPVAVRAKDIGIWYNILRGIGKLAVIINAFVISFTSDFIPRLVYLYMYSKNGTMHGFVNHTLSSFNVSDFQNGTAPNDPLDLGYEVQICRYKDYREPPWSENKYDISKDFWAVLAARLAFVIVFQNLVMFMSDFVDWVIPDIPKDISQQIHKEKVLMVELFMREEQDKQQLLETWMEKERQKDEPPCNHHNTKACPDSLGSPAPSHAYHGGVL
# Experiment: QPatch-48 single-concentration/multiple-addition (extended incubation) protocol
# Type: cell-based
# Procedure: As mentioned, due to the nature of the channel and its rundown issues, time limitations exist for recording. Therefore, each concentration of compound is added to the cell for a duration of 60 s. It is possible that the IC50 is shifted for those compounds that require a longer time to act on the channel. To account for this, a single-concentration/multiple-addition protocol was established (Fig. 6). […] This led us to wonder if we were missing the full response to the concentration before the next liquid period began and the more concentrated, cumulative addition was applied to the cell. The original application protocol was amended to allow for two 4-min incubations with the same concentration of compound. The total length of the assay is roughly 15 min, with two 1-min saline additions to stabilize current, two 1-min vehicle additions to account for any DMSO effects, and two 4-min compound additions, ending with two 1-min saline additions to look for washout effects. The same IV voltage protocol was used as well as the same whole-cell conditions and solutions. When niclosamide was run with this extended incubation protocol, the IC50 was four times as potent (Fig. 6), aligning nicely with the other in-house assays that were run. A DMSO condition was included to account for any rundown that occurred, with the result of 92% current remaining at the end of the assay. Therefore, the block observed with niclosamide additions was not due to rundown. When 240 nM was added, the current plateaued at ∼60% current amplitude. […] Any compounds that result in partial inhibition with the original assay can be run on the multiple-addition assay to see if they require more time to inhibit the channel.
# Fig. 6. Current time plots of the modified protocol with multiple additions of a single concentration. Top: IT plot when 240 nM niclosamide is added to a cell. Bottom: IT plot when 1.2 μM niclosamide is added to a cell.
compound,measurement,setting,value
O=C(Nc1ccc([N+](=O)[O-])cc1Cl)c1cc(Cl)ccc1O [Niclosamide],current amplitude at plateau,240 nM,~60%
same,block in current after first 4-min incubation,"1.2 μM, after first addition",50%
same,final block after second addition,"1.2 μM, after second 4-min addition",78%
same,IC50,"Fig. 6 table in picture, read-out: IC50, Single Concentration- Multiple Additions",352 nM
same,IC50,"single concentration, multiple additions, Fig. 6 curve, read-out: IC50, modified single-concentration assay",352 nM
same,IC50,"two 4-min additions of the same concentration, n = 2, read-out: final IC50 (mean ± SD)",221 ± 185 nM
